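Protocol summary: plate cells (96-well), add compound at 5 concentrations, incubate 48 h, interpolate endpoints linearly. Abbreviation: GI50, concentration required for 50% inhibition of growth. TGI: concentration producing complete growth inhibition.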
Key:
Assay in all cases: inhibition of tumour cell growth, NCI panel, 48 h
EKVX NSCLC = tested on: EKVX NSCLC
NCI/ADR-RES ovarian = tested on: NCI/ADR-RES ovarian
HCC-2998 colon = tested on: HCC-2998 colon
LOX IMVI melanoma = tested on: LOX IMVI melanoma
MDA-MB-231 breast = tested on: MDA-MB-231 breast
SR leukemia = tested on: SR leukemia
M14 melanoma = tested on: M14 melanoma
SF-268 CNS = tested on: SF-268 CNS
SNB-19 CNS = tested on: SNB-19 CNS
OVCAR-3 ovarian = tested on: OVCAR-3 ovarian
CAKI-1 renal = tested on: CAKI-1 renal
MALME-3M melanoma = tested on: MALME-3M melanoma
NCI-H23 lung = tested on: NCI-H23 lung
SF-295 CNS = tested on: SF-295 CNS
HS 578T breast = tested on: HS 578T breast
HL-60(TB) leukemia = tested on: HL-60(TB) leukemia
RXF 393 renal = tested on: RXF 393 renal
MCF7 breast = tested on: MCF7 breast
TK-10 renal = tested on: TK-10 renal
MOLT-4 leukemia = tested on: MOLT-4 leukemia
U251 CNS = tested on: U251 CNS
NCI-H522 lung = tested on: NCI-H522 lung
CCRF-CEM leukemia = tested on: CCRF-CEM leukemia
SK-MEL-5 melanoma = tested on: SK-MEL-5 melanoma
HT29 colon = tested on: HT29 colon
HCT-15 colon = tested on: HCT-15 colon
HOP-62 NSCLC = tested on: HOP-62 NSCLC
SK-OV-3 ovarian = tested on: SK-OV-3 ovarian
786-0 renal = tested on: 786-0 renal
NCI-H226 lung = tested on: NCI-H226 lung
ACHN renal = tested on: ACHN renal
COLO 205 colon = tested on: COLO 205 colon
A498 renal = tested on: A498 renal
A549 NSCLC = tested on: A549 NSCLC
SK-MEL-28 melanoma = tested on: SK-MEL-28 melanoma
OVCAR-4 ovarian = tested on: OVCAR-4 ovarian
MDA-MB-435 = tested on: MDA-MB-435
SNB-75 CNS = tested on: SNB-75 CNS
OVCAR-8 ovarian = tested on: OVCAR-8 ovarian
BT-549 breast = tested on: BT-549 breast
KM12 colon = tested on: KM12 colon
T-47D breast = tested on: T-47D breast
SK-MEL-2 melanoma = tested on: SK-MEL-2 melanoma
UACC-257 melanoma = tested on: UACC-257 melanoma
SF-539 CNS = tested on: SF-539 CNS
RPMI-8226 leukemia = tested on: RPMI-8226 leukemia
K-562 leukemia = tested on: K-562 leukemia
SN12C renal = tested on: SN12C renal
UACC-62 melanoma = tested on: UACC-62 melanoma
HCT-116 colon = tested on: HCT-116 colon
HOP-92 NSCLC = tested on: HOP-92 NSCLC
DU-145 prostate = tested on: DU-145 prostate
PC-3 prostate = tested on: PC-3 prostate
NCI-H460 lung = tested on: NCI-H460 lung
UO-31 renal = tested on: UO-31 renal
SW-620 colon = tested on: SW-620 colon
IGROV1 ovarian = tested on: IGROV1 ovarian
OVCAR-5 ovarian = tested on: OVCAR-5 ovarian

Question: Which results are given for `Cc1cc(C)c2c(c1)N(C)c1ncnc(-n3cnc4cc(C)ccc43)c1CC2C` (stereo unspecified)?
Answer: GI50 (EKVX NSCLC): 4.76 µM; TGI (EKVX NSCLC): > 100 µM; GI50 (NCI/ADR-RES ovarian): 3.05 µM; TGI (NCI/ADR-RES ovarian): 19.5 µM; GI50 (HCC-2998 colon): 4.05 µM; TGI (HCC-2998 colon): 61.8 µM; GI50 (LOX IMVI melanoma): 4.82 µM; TGI (LOX IMVI melanoma): 33.4 µM; GI50 (MDA-MB-231 breast): 3.03 µM; TGI (MDA-MB-231 breast): 14.6 µM; GI50 (SR leukemia): 0.787 µM; TGI (SR leukemia): 8.62 µM; GI50 (M14 melanoma): 2.6 µM; TGI (M14 melanoma): 11.2 µM; GI50 (SF-268 CNS): 6.04 µM; TGI (SF-268 CNS): > 100 µM; GI50 (SNB-19 CNS): 4.22 µM; TGI (SNB-19 CNS): > 100 µM; GI50 (OVCAR-3 ovarian): 3.32 µM; TGI (OVCAR-3 ovarian): 14.7 µM; GI50 (CAKI-1 renal): 3.37 µM; TGI (CAKI-1 renal): 70.2 µM; GI50 (MALME-3M melanoma): 3.61 µM; TGI (MALME-3M melanoma): 17.3 µM; GI50 (NCI-H23 lung): 4.87 µM; TGI (NCI-H23 lung): > 100 µM; GI50 (SF-295 CNS): 2.89 µM; TGI (SF-295 CNS): 12 µM; GI50 (HS 578T breast): 3 µM; TGI (HS 578T breast): 31 µM; GI50 (HL-60(TB) leukemia): 2.46 µM; TGI (HL-60(TB) leukemia): 9.36 µM; GI50 (RXF 393 renal): 2.66 µM; TGI (RXF 393 renal): 9.06 µM; GI50 (MCF7 breast): 3.42 µM; TGI (MCF7 breast): > 100 µM; GI50 (TK-10 renal): 7.37 µM; TGI (TK-10 renal): > 100 µM; GI50 (MOLT-4 leukemia): 2.46 µM; TGI (MOLT-4 leukemia): 9.57 µM; GI50 (U251 CNS): 3.55 µM; TGI (U251 CNS): 19.4 µM; GI50 (NCI-H522 lung): 2.07 µM; TGI (NCI-H522 lung): 6.53 µM; GI50 (CCRF-CEM leukemia): 2.78 µM; TGI (CCRF-CEM leukemia): 11.4 µM; GI50 (SK-MEL-5 melanoma): 2.24 µM; TGI (SK-MEL-5 melanoma): 5.34 µM; GI50 (HT29 colon): 3.13 µM; TGI (HT29 colon): 10.5 µM; GI50 (HCT-15 colon): 3.58 µM; TGI (HCT-15 colon): 36.3 µM; GI50 (HOP-62 NSCLC): 4.71 µM; TGI (HOP-62 NSCLC): 30 µM; GI50 (SK-OV-3 ovarian): 4.41 µM; TGI (SK-OV-3 ovarian): > 100 µM; GI50 (786-0 renal): 3.53 µM; TGI (786-0 renal): 15.4 µM; GI50 (NCI-H226 lung): 3.1 µM; TGI (NCI-H226 lung): 17.9 µM; GI50 (ACHN renal): 4.07 µM; TGI (ACHN renal): 18.3 µM; GI50 (COLO 205 colon): 3.32 µM; TGI (COLO 205 colon): 10.5 µM; GI50 (A498 renal): 1.41 µM; TGI (A498 renal): 6.21 µM; GI50 (A549 NSCLC): 4.03 µM; TGI (A549 NSCLC): 56.9 µM; GI50 (SK-MEL-28 melanoma): 5.61 µM; TGI (SK-MEL-28 melanoma): 20.7 µM; GI50 (OVCAR-4 ovarian): 4.18 µM; TGI (OVCAR-4 ovarian): 47.4 µM; GI50 (MDA-MB-435): 2.44 µM; TGI (MDA-MB-435): 10.6 µM; GI50 (SNB-75 CNS): 2.8 µM; TGI (SNB-75 CNS): 13.2 µM; GI50 (OVCAR-8 ovarian): 3.79 µM; TGI (OVCAR-8 ovarian): 20 µM; GI50 (BT-549 breast): 2.93 µM; TGI (BT-549 breast): 12 µM; GI50 (KM12 colon): 3.67 µM; TGI (KM12 colon): 26 µM; GI50 (T-47D breast): 4.17 µM; TGI (T-47D breast): 24.9 µM; GI50 (SK-MEL-2 melanoma): 4.21 µM; TGI (SK-MEL-2 melanoma): 26.6 µM; GI50 (UACC-257 melanoma): 11.5 µM; TGI (UACC-257 melanoma): 38.5 µM; GI50 (SF-539 CNS): 2.74 µM; TGI (SF-539 CNS): 9.16 µM; GI50 (RPMI-8226 leukemia): 2.59 µM; TGI (RPMI-8226 leukemia): 9.08 µM; GI50 (K-562 leukemia): 1.5 µM; TGI (K-562 leukemia): > 100 µM; GI50 (SN12C renal): 4.37 µM; TGI (SN12C renal): 19.7 µM; GI50 (UACC-62 melanoma): 3.13 µM; TGI (UACC-62 melanoma): 18.4 µM; GI50 (HCT-116 colon): 3.08 µM; TGI (HCT-116 colon): 14.6 µM; GI50 (HOP-92 NSCLC): 4.1 µM; TGI (HOP-92 NSCLC): 32.9 µM; GI50 (DU-145 prostate): 4.44 µM; TGI (DU-145 prostate): 63.7 µM; GI50 (PC-3 prostate): 2.25 µM; TGI (PC-3 prostate): 14.8 µM; GI50 (NCI-H460 lung): 3.4 µM; TGI (NCI-H460 lung): 11.4 µM; GI50 (UO-31 renal): 2.5 µM; TGI (UO-31 renal): 16.2 µM; GI50 (SW-620 colon): 4.1 µM; TGI (SW-620 colon): 64.1 µM; GI50 (IGROV1 ovarian): 5.46 µM; TGI (IGROV1 ovarian): > 100 µM; GI50 (OVCAR-5 ovarian): 5.52 µM; TGI (OVCAR-5 ovarian): 24.4 µM

Source: PubChem BioAssay (NCI)
